Source: patent US9880171B2, “iASPP phosphorylation and metastatic potential” (LUDWIG INSTITUTE FOR CANCER RESEARCH LTD., priority 2012, dated 2018)

Legend:
Format in all cases: cell-based, human
[1] = tested on: slow-migrating iASPP in H1299 cells; test: induction of slow-migrating iASPP by chemotherapeutic agents in H1299 cells (WB); conditions: H1299, overnight treatment (oxidative stress inducers 1-3 h; EDTA 4 mM 1 hour), antibody LX49.3
Method: FIG. 3. […] H1299 cells were treated overnight with the indicated concentrations of mitosis-arrest drugs nocodazole, colchicine and taxol, DNA damaging drugs, or oxidative stress inducers (1-3 h). Total lysate was prepared in UREA buffer, and iASPP expression patterns were determined using antibody LX49.3. […] Mitotic-arrest drugs were applied to H1299 cells to induce iASPP mobility shift. Floating and adherent cells were collected, and iASPP expression pattern was determined by western blotting (WB). C. […] Left panel, cells in mitosis (floating) and interphase (adherent) were collected by mitotic shake-off, and iASPP expression pattern was determined by WB. Right panel, H1299 cells after Taxol treatment, or mitotic shake-off were immunofluorescence stained using antibody LX49.3. In mitotic shake-off experiment, mitotic shake-off cells were cytospun to slides; the remaining adherent cells after shaking were scraped off and used as interphase control. […] Melanoma cells were treated with nocodazole overnight and iASPP expression patterns from total cell lysate was determined by WB.
FIG. 4. A. Floating and adherent H1299 cells separately collected by mitotic shake-off (FIG. 3C) were stained with propidium iodide (PI), followed by FACS analysis. […] B. H1299 cells were subjected to treatment of 10 μM nocodazole for 24 hours (Nocodazole), on ice for 30 minutes (Cold shock), or 4 mM EDTA for 1 hour (EDTA). Left panel: iASPP expression pattern was analysed by immunoblotting. Right panel: phase contrast images were taken before collection of the cells for WB analysis. Bar=20 μm.
For WB, cells were lysed in buffer containing 8 M urea, 1 M thiourea, 0.5% CHAPS, 50 mM DTT, and 24 mM spermine. A total of 40 μg of protein extract was loaded per lane into SDS-polyacrylamide gels. Gels were transferred onto nitrocellulose membrane (Protran) and the resulting blots incubated first with primary antibody overnight at 4° C. and then with the appropriate secondary horseradish peroxidize-conjugated antibody (Dako). The results were visualized by enhanced chemiluminescent detection (Amersham Biosciences) using X-ray film (Fujifilm). For cell lysate immunoprecipitation, cells were dissolved in NP40 buffer (50 mM Tris-HCl pH 8.0, 150 mM NaCl, 1% NP-40) with protease inhibitor cocktail mix (Roche Diagnostics). Cells were further thoroughly broken by ultrasonication, followed by spinning for 1 hour. Achieved suspension was adjusted to 1-2 mg/ml using NP40 buffer and incubated with 20 μl nickel beads, glutathione beads, or protein A beads (with 2 μg required antibody) for 2 h at room temperature. The beads were washed for four times with NP40 buffer, boiled for 5 min in Laemmli sample buffer, and applied for Western blotting. For pure protein immunoprecipitation, 5-10 μg purified proteins were mixed in NP40 buffer with 1 mg/ml BSA for 2 h at room temperature.
As mitotic cells often detach from the tissue culture dish, floating cells were separated from adherent cells after the treatment of Nocodozole, Taxol and Colchicine.

[2] = tested on: iASPP modification in H1299 cells; test: nocodazole-induced iASPP modification in H1299 cells, G2/M kinase inhibitor panel (immunoblotting); conditions: 2-10 μM, 10 μM nocodazole overnight
Method: FIG. 12. […] FIG. 12A. […] FIG. 12B. […] FIG. 12C.
FIG. 13. FIG. 13A. […] FIG. 13B.
FIG. 20. […] FIG. 20A. […] Bar=20 μm.
For WB, cells were lysed in buffer containing 8 M urea, 1 M thiourea, 0.5% CHAPS, 50 mM DTT, and 24 mM spermine. A total of 40 μg of protein extract was loaded per lane into SDS-polyacrylamide gels. Gels were transferred onto nitrocellulose membrane (Protran) and the resulting blots incubated first with primary antibody overnight at 4° C. and then with the appropriate secondary horseradish peroxidize-conjugated antibody (Dako). The results were visualized by enhanced chemiluminescent detection (Amersham Biosciences) using X-ray film (Fujifilm).

[3] = tested on: nuclear entry of FITC labeled iASPP(625-828); test: in vitro nuclear import assay in digitonin permeabilized H1299 cells; conditions: for nuclear entry of FITC labeled iASPP(625-828): pre-incubation with 0-1 mg/ml non-labeled protein, 2 hours
Method: FIG. 7. S84/S113 phosphorylation of iASPP prevents N- and C-terminal self-interaction and promotes iASPP nuclear localization. A. N- and C-terminal iASPP self-interacts, and iASPP(1-240 of SEQ ID NO: 2)S84D/S113D fails to interact with C-terminal iASPP in vitro. Upper panel: 10 μg/ml purified GST-tagged iASPP (1-240 of SEQ ID NO: 2) or iASPP (249-482 of SEQ ID NO: 2) were incubated with 10 μg/ml purified 6*His-tagged iASPP (625-828 of SEQ ID NO: 2) or ASPP2 (905-1128 of SEQ ID NO: 2) in NP40 buffer for 2 hours. iASPP (1-240 of SEQ ID NO: 2) and iASPP (249-482 of SEQ ID NO: 2) were pulled down by glutathione beads. Bound iASPP (625-828 of SEQ ID NO: 2) and ASPP2 (905-1128 of SEQ ID NO: 2) were determined using anti-His antibodies. Lower panel: 10 μg/ml purified iASPP (1-240 of SEQ ID BO: 2)-GST mutants were incubated with 10 μg/ml mixture of iASPP (625-828 of SEQ ID NO: 2)-His and ASPP2 (905-1128 of SEQ ID NO: 2)-His in NP40 buffer for 2 hours. Interaction was determined as above. […] Cells were suspended in NP40 buffer, and interactions between overexpressed iASPP(1-478 of SEQ ID NO: 2)-V5 and purified iASPP(625-828 of SEQ ID NO: 2)-His were determined by co-immunoprecipitation. […] Cells were suspended in NP40 buffer, and interaction between endogenous iASPP and iASPP (1-240 of SEQ ID NO: 2)-GST was determined by co-immunoprecipitation. […] Upper right panel: H1299 cells were treated with or without nocodazole and iASPP mobility shift were determined in non-denaturing or denaturing WB. […] After 4 washes, the interaction between them was determined by co-immunoprecipitation using anti-GST and anti-V5 antibodies. […] Nuclear iASPP (625-828 of SEQ ID NO: 2)-FITC was determined by direct FITC fluorescence. iASPP(1-240)S84D/S113D and ASPP2(905-1128 of SEQ ID NO: 2) were used as control. […]
Purified proteins were labeled with FITC according to protocol from protein label kit (F-6434, Invitrogen). […] The cellular localization of the substrate was determined by direct fluorescence observation under confocol microscope. […]

Molecule	induction of slow-migrating iASPP isoform [1]	also measured
N.N.[Cl][Pt][Cl] [Cisplatin]	did not result in increased slow-migrating iASPP isoform expression	–
COc1cc2c(c(OC)c1OC)-c1ccc(OC)c(=O)cc1[C@@H](NC(C)=O)CC2 [Colchicine]	induced	–
COc1cccc2c1C(=O)c1c(O)c3c(c(O)c1C2=O)C[C@@](O)(C(=O)CO)C[C@@H]3O[C@H]1C[C@H](N)[C@H](O)[C@H](C)O1 [Doxorubicin]	did not result in increased slow-migrating iASPP isoform expression	–
O=C(O)CN(CCN(CC(=O)O)CC(=O)O)CC(=O)O [EDTA]	failed to affect iASPP mobility	–
CN[C@@H]1C[C@H]2O[C@@](C)([C@@H]1OC)n1c3ccccc3c3c4c(c5c6ccccc6n2c5c31)C(=O)NC4 [Staurosporine]	did not result in increased slow-migrating iASPP isoform expression	–
CC(=O)O[C@H]1C(=O)[C@@]2(C)[C@H]([C@H](OC(=O)c3ccccc3)[C@]3(O)C[C@H](OC(=O)[C@H](O)[C@@H](NC(=O)c4ccccc4)c4ccccc4)C(C)=C1C3(C)C)[C@]1(OC(C)=O)CO[C@@H]1C[C@@H]2O [Taxol]	induced	–
OO [hydrogen peroxide]	did not result in increased slow-migrating iASPP isoform expression	–
CC[C@H](CO)Nc1nc(NCc2ccccc2)c2ncn(C(C)C)c2n1 [roscovitine]	–	prevention of nocodazole-induced iASPP modification ([2]; panel of 15 G2/M kinase inhibitors): only weakly affected iASPP modification; prevention of nocodazole-induced iASPP modification ([2]; panel of 18 G2/M kinase inhibitors): failed to affect iASPP modification
iASPP(1-240): purified recombinant N-terminal iASPP fragment, amino acids 1-240 of SEQ ID NO: 2, GST tag (protein, listed as Homo sapiens, GST tag) MDSEAFQSARDFLDMNFQSLAMKHMDLKQMELDTAAAKVDELTKQLESLWSDSPAPPGPQAGPPSRPPRYSSSSIPEPFGSRGSPRKAATDGADTPFGRSESAPTLHPYSPLSPKGRPSSPRTPLYLQPDAYGSLDRATSPRPRAFDGAGSSLGRAPSPRPGPGPLRQQGPPTPFDFLGRAGSPRGSPLAEGPQAFFPERGPSPRPPATAYDAPASAFGSSLLGSGGSAFAPPLRAQDDL	–	nuclear entry of FITC labeled iASPP(625-828) [3]: effectively prevented the nuclear entry; nuclear entry of ASPP2(905-1128) ([3]; pre-incubation with non-labeled protein): no impact on the nuclear entry of ASPP2(905-1128)
iASPP(1-240)S84D/S113D: iASPP phosphor-mimic mutant of the N-terminal fragment 1-240 (protein, listed as Homo sapiens) MDSEAFQSARDFLDMNFQSLAMKHMDLKQMELDTAAAKVDELTKQLESLWSDSPAPPGPQAGPPSRPPRYSSSSIPEPFGSRGDPRKAATDGADTPFGRSESAPTLHPYSPLDPKGRPSSPRTPLYLQPDAYGSLDRATSPRPRAFDGAGSSLGRAPSPRPGPGPLRQQGPPTPFDFLGRAGSPRGSPLAEGPQAFFPERGPSPRPPATAYDAPASAFGSSLLGSGGSAFAPPLRAQDDL	–	nuclear entry of FITC labeled iASPP(625-828) [3]: failed to have any impact
